Experiment [1] relates to NLRP3 inflammasome signal 1. The experiment is described as follows: NLRP3 inflammasome signal 1 in LPS-treated BMDMs (IB, FACS ROS, cytokine ELISA). The experiment is classed as cell-based, mice. To be noted: for production of cytokines (NF-κB-induced): ELISA of supernatants; for generation of ROS: FACS. The method, then: (§1) FIG. 4 confirms that NAMPT-derived peptides inhibit activation of signal 1 and 2 of NLRP3. Specifically, (A-C) BMDMs were stimulated with LPS for 4 hours and pretreated with rNAMPT for 1 hour (A, B) or 18 hours (C). (A) WCLs were used for IB with αIkB-α, αP-IkB-α, or αActin. (B) FACS analysis for H2O2 (probe for 2′,7′-dichlorofluorescin diacetate) or O^2− (probe for dihydroethidium). Quantitative analysis (upper) of mean fluorescence intensities of H2O2 and O^2− and NADPH oxidase activity (lower), (C) Culture supernatants (SN) were harvested and analyzed for cytokine ELISA. (D, E) LPS-primed BMDMs were treated with rNAMPT for 1 hour and then activated with ATP for 30 minutes. (D) ELISA for IL-1β and IL-18. (E) IB in SN with αIL-1β p17, αIL-18 p18, or αCasp1 p10 and IB of WCL with αPro-IL-1β, αPro-IL-18, αPro-Casp1, or αActin. […] Data come from three independent experiments that yielded similar results. (B-D) Data are provided as mean±SD of three experiments. Significance difference compared to LPS+PBS (*p<0.05; **p<0.01; ***p<0.001);
(§2) FIG. 5 illustrates results confirming an effect of TAT-NAMPT or NAMPT peptide on inflammation. Specifically, (A) BMDMs were stimulated with LPS (100 ng/ml) for 18 hours and pretreated with rNAMPT for 1 hour. Culture supernatants were collected and analyzed for cytokine ELISA. (B) LPS-primed BMDMs were treated with rNAMPT for 1 hour and then activated with nigericin for 30 minutes and DSS for 24 hours. ELISA for IL-1B and IL-18. […] The shown data are the mean±SD of three experiments. Significant difference comparing LPS+PBS (*p<0.05; **p<0.01; ***p<0.001);
Primary bone marrow-derived macrophages (BMDMs) were harvested from mice and cultured in DMEM in the presence of M-CSF (R&D Systems, 416-ML) for 3 to 5 days. HEK293T cells (ATCC-11268; American Type Culture Collection) were cultured in DMEM (Gibco) containing 10% FBS (Gibco), nonessential amino acids, sodium pyruvate, streptomycin (100 μg/mL) and penicillin G (100 IU/mL).
Polypeptides were separated by SDS-polyacrylamide gel electrophoresis and then transferred to a PVDF membrane for immunoblotting (IB) (Bio-Rad, Hercules, CA, USA). For immunodetection, specific antibodies were required, and Chemiluminescence (ECL; Millipore, MA, USA) was used to visualize an antibody bound to a target. In addition, a Vilber chemiluminescence analyzer was used to detect the antibody (Fusion SL3; Vilber Lourmat, Colégien, France).
Flow cytometry was used to quantify intracellular ROS levels. The cells were cultured in a serum-free medium and stained with 2 μM dihydroethidium (DHE for O^2−; Calbiochem) or 1 μM 2′,7′-dichlorodihydrofluorescein diacetate (H2DCFDA for H2O2; Calbiochem) as a redox-sensitive dye. mAbs were incubated at 4° C. for 20 to 30 minutes to determine cell surface protein expression, and cells were fixed using a Cytofix/Cytoperm Solution (BD Biosciences), and in a specific case, mAb incubation was performed to detect intracellular proteins. The used mAb clones were the following: ITGA6 (GoH3, BD Pharmingen™) and ITGB1 (HMβ1-1, BD Pharmingen™). The cells were washed completely and quickly with pulse spinning before being analyzed in a FACS Calibur (BD Biosciences, San Jose, CA, USA). CellQuest software (BD Biosciences) was used to visualize the data, and FlowJo software was used to analyze the data (Tree Star, Ash-land, OR, USA).
TNF-α, IL-6, IL-1β and IL-18 levels were measured in cell culture supernatants and mouse serum using the BD OptEIA ELISA system (BD Pharmingen). All experiments were performed according to the manufacturer's protocol.
To determine the effect of NAMPT peptides related to signal 1 for the NLRP3 inflammasome in macrophages, LPS-treated BMDMs were exposed to different concentrations of NAMPT peptides (aa 57-65, aa 52-56, or aa 52-65). […] Thus, the TAT-NAMPT peptides were less likely to inhibit the interaction of eNAMPT with TLR4 or CYBB.
Background: An ELISA detects its analyte on a solid surface through an enzyme-linked reagent.

The subject of experiment [2] is NAMPT-TLR4 binding. Kind of experiment: Co-immunoprecipitation of Myc-NAMPT with Flag-TLR4 in 293T cells treated with TAT-NAMPT peptides. The experiment is classed as cell-based. To be noted: Myc-NAMPT and Flag-TLR4, peptide 6 hours, 5 μM or 1, 5, 10 μM. As for the experimental part: (§3) FIG. 3 illustrates experimental design and results for identifying an essential region of NAMPT for binding to TLR4 and CYBB. Specifically, (A) Schematic diagram (upper) of the structures of NAMPT and TLR4. 293T cells were transfected with GST-NAMPT or its mutants and Flag-TLR4. GST pulldown was performed with 293T cells and then IB was performed using αFlag. WCLs were used for IB using αGST, αFlag, or αActin (lower, left in A). 293T cells were transfected with Flag-TLR4 or its mutants and Myc-NAMPT. The 293T cells were used for IP with αMyc, followed by IB with αFlag. WCLs were used for IB using αMyc, αFlag or αActin (lower, right in A). (B) 293T cells were transfected with Myc-NAMPT and Flag-TLR4 and treated with NAMPT peptide or its mutants for 6 hours (5 μM, left; 1, 5, 10 μM, right). The 293T cells were used for IP with αFlag, followed by IB with αMyc. WCLs were used for IB using αMyc, αFlag, or αActin. (C) Schematic diagram (upper) of the structures of CYBB. 293T cells were transfected with GST-NAMPT or its mutants and V5-CYBB (lower, left in C). The 293T cells were transfected with GST-CYBB or its mutants and Myc-NAMPT (lower, right in C). The 293T cells were subjected to GST pull-down, followed by IB with αV5 or αMyc. WCLs were used for IB using αGST, αMyc, a V5 or αActin. […]

The target in experiment [3] is T1, NAMPT-CYBB binding (Homo sapiens, UniProt P04839).
T1 construct: The full-length (FL) CYBB and mutant plasmids were constructed as follows; expressed in transfected cells; host or cells: HEK293T (293T)
T1 sequence (P04839 1-570): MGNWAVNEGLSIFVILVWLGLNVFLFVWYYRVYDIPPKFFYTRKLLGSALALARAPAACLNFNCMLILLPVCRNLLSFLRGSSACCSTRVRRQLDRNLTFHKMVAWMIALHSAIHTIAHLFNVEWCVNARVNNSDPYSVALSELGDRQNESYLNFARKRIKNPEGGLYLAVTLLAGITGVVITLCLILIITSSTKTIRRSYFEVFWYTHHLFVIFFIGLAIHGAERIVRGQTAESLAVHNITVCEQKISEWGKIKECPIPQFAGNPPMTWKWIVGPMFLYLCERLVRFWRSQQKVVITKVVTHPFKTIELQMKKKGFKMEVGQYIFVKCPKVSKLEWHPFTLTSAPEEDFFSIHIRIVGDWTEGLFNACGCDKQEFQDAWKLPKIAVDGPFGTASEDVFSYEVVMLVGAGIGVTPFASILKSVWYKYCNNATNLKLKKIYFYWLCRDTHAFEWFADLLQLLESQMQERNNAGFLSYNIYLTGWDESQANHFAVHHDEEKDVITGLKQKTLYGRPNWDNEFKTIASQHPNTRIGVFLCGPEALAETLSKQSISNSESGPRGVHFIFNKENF
The experiment is described as follows: Co-immunoprecipitation of Myc-NAMPT with V5-CYBB in 293T cells treated with TAT-NAMPT peptides. The format is cell-based. The settings on record: Myc-NAMPT and V5-CYBB, peptide 6 hours, 5 μM or 1, 5, 10 μM. As for the experimental part: as §3

Experiment [4] has as its system NLRP3 inflammasome signal 2. Kind of experiment: NLRP3 inflammasome signal 2 in LPS-primed BMDMs activated with ATP, nigericin or DSS (ELISA, IB). The format is cell-based, mice. The method, then: as §1, §2
Primary bone marrow-derived macrophages (BMDMs) were harvested from mice and cultured in DMEM in the presence of M-CSF (R&D Systems, 416-ML) for 3 to 5 days. […]
TNF-α, IL-6, IL-1β and IL-18 levels were measured in cell culture supernatants and mouse serum using the BD OptEIA ELISA system (BD Pharmingen). […]

In experiment [5] the target is TLR4 (Homo sapiens, UniProt O00206). The experiment is described as follows: Fluorescence binding titration of labeled TLR4 with unlabeled NAMPT. The settings on record: fluorescently labeled TLR4 titrated with unlabeled NAMPT, curve fit; read-out: Kd of NAMPT-TLR4 interaction.
Experiment [6] concerns the target T2, CYBB (Homo sapiens, UniProt P04839).
T2 sequence (P04839 1-570): T1 sequence (P04839 1-570)
The experiment is described as follows: Fluorescence binding titration of labeled CYBB with unlabeled NAMPT. To be noted: fluorescently labeled CYBB titrated with unlabeled NAMPT, curve fit; read-out: Kd of NAMPT-CYBB interaction.

TLR4, sequence (O00206 24-839, species assumed): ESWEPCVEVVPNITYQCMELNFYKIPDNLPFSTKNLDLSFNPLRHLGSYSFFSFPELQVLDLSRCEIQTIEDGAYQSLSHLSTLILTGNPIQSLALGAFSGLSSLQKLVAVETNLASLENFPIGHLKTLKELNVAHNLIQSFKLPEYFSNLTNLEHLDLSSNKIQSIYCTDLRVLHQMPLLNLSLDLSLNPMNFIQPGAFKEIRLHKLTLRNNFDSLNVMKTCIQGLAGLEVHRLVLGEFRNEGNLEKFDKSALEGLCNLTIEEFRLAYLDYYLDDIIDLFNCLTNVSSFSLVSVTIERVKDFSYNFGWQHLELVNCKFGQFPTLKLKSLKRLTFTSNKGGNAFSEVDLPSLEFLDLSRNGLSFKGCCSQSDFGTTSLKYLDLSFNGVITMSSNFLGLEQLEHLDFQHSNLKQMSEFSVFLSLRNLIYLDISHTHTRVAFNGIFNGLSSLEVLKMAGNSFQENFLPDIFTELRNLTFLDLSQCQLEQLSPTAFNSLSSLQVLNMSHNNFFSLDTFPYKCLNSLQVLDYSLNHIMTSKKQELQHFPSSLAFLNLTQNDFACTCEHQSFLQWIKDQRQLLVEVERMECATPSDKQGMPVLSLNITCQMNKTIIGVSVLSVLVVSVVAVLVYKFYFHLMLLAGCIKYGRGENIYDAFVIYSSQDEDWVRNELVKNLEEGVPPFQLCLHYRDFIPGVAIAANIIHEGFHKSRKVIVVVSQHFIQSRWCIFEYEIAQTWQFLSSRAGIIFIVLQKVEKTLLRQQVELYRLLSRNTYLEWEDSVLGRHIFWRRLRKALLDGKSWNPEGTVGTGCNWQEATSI

Turning to “NAMPT peptides aa 52-56: peptide of amino acids 52 to 56 of NAMPT (SEQ ID NO: 1), binds CYBB (VKYEE; listed as Homo sapiens)”, in experiment [1], the “activation of NF-κB” value is listed as “partially inhibited”, the “production of cytokines (NF-κB-induced)” value was “partially inhibited” and the “generation of ROS” value is listed as “partially inhibited”.

For the substance “TAT-NAMPT (aa 40-69) (GRKKRRQRRRPQREKKTENSKLRKVKYEETVFYGLQYILNKY)”, the “binding of NAMPT to TLR4 (IP/IB)” value in experiment [2] is listed as “reduced the binding of NAMPT to TLR4”. In experiment [3], the “binding of NAMPT to CYBB (IP/IB)” value is given as “bound to CYBB”.

As for “NAMPT peptides aa 52-65: peptide of amino acids 52 to 65 of NAMPT (SEQ ID NO: 1), binds TLR4 and CYBB (VKYEETVFYGLQYI; listed as Homo sapiens)”, in experiment [1], the “production of cytokines (NF-κB-induced)” value is “markedly inhibited” and the “generation of ROS” value was “markedly inhibited”. Moreover, in experiment [4] (FIG. 4D lower, FIG. 4E right), the “action of eNAMPT on NLRP3 inflammasome signal 2” value is on record as “specifically inhibited the action of eNAMPT”. The “ATP-induced caspase-1 cleavage” value in experiment [4] (LPS-primed BMDMs, ATP 30 minutes) is reported as “efficiently inhibited”. The “maturation of IL-1β and IL-18” value in experiment [4] (LPS-primed BMDMs, ATP, nigericin or DSS stimulation) was “efficiently inhibited”.

As for “Nicotinamide phosphoribosyl transferase [NAMPT]”, the Kd – broadly, the free concentration of one partner at which half of the binding sites on the other are occupied at equilibrium, for simple one-to-one binding – is 219 nM in experiment [5] and 896 nM in experiment [6].

Consider “NAMPT peptides aa 57-65: peptide of amino acids 57 to 65 of NAMPT (SEQ ID NO: 1), binds TLR4 (TVFYGLQYI; listed as Homo sapiens)”, for which, in experiment [1], the “activation of NF-κB” value was “partially inhibited”, the “production of cytokines (NF-κB-induced)” value is reported as “partially inhibited” and the “generation of ROS” value was “partially inhibited”.

The values are drawn from US20240299505A1, “COMPOSITION FOR IMPROVING, PREVENTING OR TREATING INFLAMMATORY BOWEL DISEASE COMPRISING NAMPT-DERIVED PEPTIDE AS ACTIVE INGREDIENT” (Industry-University Cooperation Foundation Hanyang …, priority 2023, published 2024).
